The test deals with M tb H37Rv. The experiment in a line: MIC determination against M tb H37Rv (green fluorescent protein reporter assay; MIC-MABA). In kind it is cell-based, Mycobacterium tuberculosis. The conditions noted are these: 7H9 broth, 10 days exposure, MIC = lowest concentration inhibiting fluorescence by 90%; for MIC: Mycobacterium tuberculosis, H37RV, 240 h, read-out: M. TB H37Rv: MIC-MABA: MIC, M. tb H37Rv. For orientation: In a reporter assay the amount or activity of a reporter protein is the signal.

≈ marks a conversion by molar mass, not a printed value.

For orientation: MIC means the lowest concentration that inhibits growth of the organism.

As for `CC1(C)[C@H]2C[C@H](NC(=O)c3cc4c(F)cncc4[nH]3)[C@](C)(O)[C@@H]1C2` [MPL-221, 4-fluoro-N-[(1R,2R,3S,5R)-2-hydroxy-2,6,6-trimethyl-norpinan-3-yl]-1H-pyrrolo[2,3-c]pyridine-2-carboxamide], the minimal inhibitory concentration (MIC) amounted to 0.2 µg/mL (≈ 0.604 µM).

Regarding `C[Si]1(C)CCC(NC(=O)c2cc3cc(-c4ccccc4)cnc3[nH]2)CC1` [MPL-391, N-(1,1-dimethylsilinan-4-yl)-5-phenyl-1H-pyrrolo[2,3-b]pyridine-2-carboxamide], the minimum inhibitory concentration (MIC) turned out to be 0.051 µg/mL (≈ 0.14 µM).

Turning to `C[Si]1(C)CCC(NC(=O)c2cc3ccc(-c4cccnc4)nc3[nH]2)CC1` [MPL-389, N-(1,1-dimethylsilinan-4-yl)-6-(3-pyridyl)-1H-pyrrolo[2,3-b]pyridine-2-carboxamide], the MIC is 0.216 µg/mL (≈ 0.593 µM).

For `COc1ccc2cc(C(=O)NC3CC[Si]4(CCCC4)CC3)[nH]c2n1` [MPL-454, 6-methoxy-N-(5-silaspiro[4.5]decan-8-yl)-1H-pyrrolo[2,3-b]pyridine-2-carboxamide], the minimum inhibitory concentration (MIC) amounted to 0.458 µg/mL (≈ 1.33 µM).

On to `CC1(C)[C@H]2C[C@H](NC(=O)c3cc4c(C#N)ccnc4[nH]3)[C@](C)(O)[C@@H]1C2` [MPL-215, 4-cyano-N-[(1R,2R,3S,5R)-2-hydroxy-2,6,6-trimethyl-norpinan-3-yl]-1H-pyrrolo[2,3-b]pyridine-2-carboxamide], for which the minimal inhibitory concentration (MIC) is 1.4 µg/mL (≈ 4.14 µM).

On to `O=C(NC1CC[Si]2(CCCCC2)CC1)c1cc2c(F)c(Cl)ncc2[nH]1` [MPL-348, 5-chloro-4-fluoro-N-(6-silaspiro[5.5]undecan-3-yl)-1H-pyrrolo[2,3-c]pyridine-2-carboxamide], for which the MIC was 0.435 µg/mL (≈ 1.14 µM).

As for `Cc1cc(Cl)c2cc(C(=O)N[C@H]3C[C@H]4C[C@H](C4(C)C)[C@@]3(C)O)[nH]c2n1` [MPL-218, 4-chloro-N-[(1R,2R,3S,5R)-2-hydroxy-2,6,6-trimethyl-norpinan-3-yl]-6-methyl-1H-pyrrolo[2,3-b]pyridine-2-carboxamide], the minimum inhibitory concentration (MIC) turned out to be 0.037 µg/mL (≈ 0.102 µM).

For `O=C(NC1CC[Si]2(CCCC2)CC1)c1cc2c(F)cncc2[nH]1` [MPL-254, 4-fluoro-N-(5-silaspiro[4.5]decan-8-yl)-1H-pyrrolo[2,3-c]pyridine-2-carboxamide], the MIC stood at 0.2 µg/mL (≈ 0.603 µM).

For the molecule `Cc1nc2[nH]c(C(=O)NC3CCC[Si](C)(C)CCC3)cc2c(F)c1F` [MPL-301, N-(1,1-dimethylsilocan-5-yl)-4,5-difluoro-6-methyl-1H-pyrrolo[2,3-b]pyridine-2-carboxamide], the MIC was determined as 0.015 µg/mL (≈ 0.041 µM).

For `COc1ncc2[nH]c(C(=O)NC3CC[Si](C)(C)CC3)cc2c1C(F)(F)F` [MPL-452, N-(1,1-dimethylsilinan-4-yl)-5-methoxy-4-(trifluoromethyl)-1H-pyrrolo[2,3-c]pyridine-2-carboxamide], the MIC came to 0.118 µg/mL (≈ 0.306 µM).

`C[Si]1(C)CCC(NC(=O)c2cc3ccc(OC4CCC4)nc3[nH]2)CC1` [MPL-467, 6-(cyclobutoxy)-N-(1,1-dimethylsilinan-4-yl)-1H-pyrrolo[2,3-b]pyridine-2-carboxamide]: the MIC was 0.121 µg/mL (≈ 0.338 µM).

`N#Cc1ccnc2[nH]c(C(=O)NC3CCCCCCC3)cc12` [MPL-036, 4-cyano-N-cyclooctyl-1H-pyrrolo[2,3-b]pyridine-2-carboxamide]: the MIC is 0.08 µg/mL (≈ 0.27 µM).

On to `Cc1cc(C)c2cc(C(=O)NC3CCC(C)(C)CC3)[nH]c2n1` [MPL-019, N-(4,4-dimethylcyclohexyl)-4,6-dimethyl-1H-pyrrolo[2,3-b]pyridine-2-carboxamide], for which the MIC is 9 µg/mL (≈ 30.1 µM).

As for `C[C@@H]1[C@@H](NC(=O)c2cc3cc(Cl)ncc3[nH]2)C[C@H]2C[C@@H]1C2(C)C` [MPL-126, 5-chloro-N-[(1S,2S,3S,5R)-2,6,6-trimethylnorpinan-3-yl]-1H-pyrrolo[2,3-c]pyridine-2-carboxamide], the minimum inhibitory concentration (MIC) was 3.1 µg/mL (≈ 9.34 µM).

Take `CC1(C)CCC(NC(=O)c2cc3c(F)c(Cl)ncc3[nH]2)CC1` [MPL-139, 5-chloro-N-(4,4-dimethylcyclohexyl)-4-fluoro-1H-pyrrolo[2,3-c]pyridine-2-carboxamide]: the minimum inhibitory concentration (MIC) worked out at 0.24 µg/mL (≈ 0.741 µM).

In the case of `COc1cc(F)cc2[nH]c(C(=O)NC3CC[Si](C)(C)CC3)cc12` [MPL-196, N-(1,1-dimethylsilinan-4-yl)-6-fluoro-4-methoxy-1H-indole-2-carboxamide], the MIC came out at 0.0048 µg/mL (≈ 0.0144 µM).

With `C[Si]1(C)CCC(NC(=O)c2cc3c(F)ccnc3[nH]2)CC1` [MPL-109, N-(1,1-dimethylsilinan-4-yl)-4-fluoro-1H-pyrrolo[2,3-b]pyridine-2-carboxamide], the MIC amounted to 0.022 µg/mL (≈ 0.072 µM).

`Cc1nc2[nH]c(C(=O)N[C@H]3C[C@H]4C[C@@H]([C@@H]3C)C4(C)C)cc2c(F)c1Cl` [MPL-068, 5-chloro-4-fluoro-6-methyl-N-[(1S,2S,3S,5R)-2,6,6-trimethylnorpinan-3-yl]-1H-pyrrolo[2,3-b]pyridine-2-carboxamide]: the minimal inhibitory concentration (MIC) came out at 0.046 µg/mL (≈ 0.126 µM).

For the molecule `Cc1cc(Cl)c2cc(C(=O)NC3CC[Si]4(CCCC4)CC3)[nH]c2n1` [MPL-276, 4-chloro-6-methyl-N-(5-silaspiro[4.5]decan-8-yl)-1H-pyrrolo[2,3-b]pyridine-2-carboxamide], the minimal inhibitory concentration (MIC) was 0.015 µg/mL (≈ 0.0414 µM).

`Cc1nc2[nH]c(C(=O)NC3CC[Si]4(CCCCC4)CC3)cc2c(F)c1F` [MPL-285, 4,5-difluoro-6-methyl-N-(6-silaspiro[5.5]undecan-3-yl)-1H-pyrrolo[2,3-b]pyridine-2-carboxamide]: the minimum inhibitory concentration (MIC) worked out at 0.016 µg/mL (≈ 0.0424 µM).

`Cc1cc(Cl)c2cc(C(=O)NC3CC[Si]4(CCCCC4)CC3)[nH]c2n1` [MPL-277, 4-chloro-6-methyl-N-(6-silaspiro[5.5]undecan-3-yl)-1H-pyrrolo[2,3-b]pyridine-2-carboxamide]: the MIC was found to be 0.045 µg/mL (≈ 0.12 µM).

With `C[Si]1(C)CCC(NC(=O)c2cc3cc(-c4cccnc4)cnc3[nH]2)CC1` [MPL-392, N-(1,1-dimethylsilinan-4-yl)-5-(3-pyridyl)-1H-pyrrolo[2,3-b]pyridine-2-carboxamide], the MIC came out at 0.464 µg/mL (≈ 1.27 µM).

Regarding `Cc1cc(Cl)c2cc(C(=O)N[C@@H]3CC[Si](C)(C)C3)[nH]c2n1` (single isomer, unassigned) [MPL-401A], the MIC is 0.319 µg/mL (≈ 0.991 µM).

In the case of `C[Si]1(C)CCC(NC(=O)c2cc3c(F)cncc3[nH]2)CC1` [MPL-191, N-(1,1-dimethylsilinan-4-yl)-4-fluoro-1H-pyrrolo[2,3-c]pyridine-2-carboxamide], the MIC came to 0.0087 µg/mL (≈ 0.0285 µM).

For `O=C(NC1CC[Si]2(CCCCC2)CC1)c1cc2c(F)c(C(F)(F)F)ncc2[nH]1` [MPL-368, 4-fluoro-N-(6-silaspiro[5.5]undecan-3-yl)-5-(trifluoromethyl)-1H-pyrrolo[2,3-c]pyridine-2-carboxamide], the MIC was 0.49 µg/mL (≈ 1.19 µM).

For the molecule `COc1ccc2cc(C(=O)NC3CCC[Si](C)(C)CCC3)[nH]c2n1` [MPL-469, N-(1,1-dimethylsilocan-5-yl)-6-methoxy-1H-pyrrolo[2,3-b]pyridine-2-carboxamide], the MIC is 0.206 µg/mL (≈ 0.596 µM).

As to `O=C(NC1CCC2(CCC2)CC1)c1cc2c(Cl)ccnc2[nH]1` [MPL-001, 4-chloro-N-spiro[3.5]nonan-7-yl-1H-pyrrolo[2,3-b]pyridine-2-carboxamide], the MIC stood at 0.03 µg/mL (≈ 0.0944 µM).

In the case of `C[Si]1(C)CCCC(NC(=O)c2cc3c(Cl)c(Cl)ncc3[nH]2)CC1` (stereo not shown) [MPL-350, 4,5-dichloro-N-(1,1-dimethylsilepan-4-yl)-1H-pyrrolo[2,3-c]pyridine-2-carboxamide], the minimum inhibitory concentration (MIC) is 0.247 µg/mL (≈ 0.667 µM).

Consider `C[Si]1(C)CCC(NC(=O)c2cc3cc(-c4ccccc4)ncc3[nH]2)CC1` [MPL-445], for which the MIC amounted to 0.119 µg/mL (≈ 0.327 µM).

With `COc1ccnc2[nH]c(C(=O)NC3CCCCCCC3)cc12` [MPL-038, N-cyclooctyl-4-methoxy-1H-pyrrolo[2,3-b]pyridine-2-carboxamide], the MIC came out at 6.2 µg/mL (≈ 20.6 µM).

`Cc1nc2[nH]c(C(=O)N[C@H]3CCC[Si](C)(C)CC3)cc2c(F)c1F` (single isomer, unassigned) [MPL-282B]: the minimal inhibitory concentration (MIC) came out at 0.197 µg/mL (≈ 0.56 µM).

Consider `C[C@@H]1[C@@H](NC(=O)c2cc3c(C(F)(F)F)ccnc3[nH]2)C[C@H]2C[C@@H]1C2(C)C` [MPL-015, 4-(trifluoromethyl)-N-[(1S,2S,3S,5R)-2,6,6-trimethylnorpinan-3-yl]-1H-pyrrolo[2,3-b]pyridine-2-carboxamide], for which the MIC worked out at 0.044 µg/mL (≈ 0.12 µM).

With `CC1(C)CCC(NC(=O)c2cc3cc(F)ncc3[nH]2)CC1` [MPL-129, N-(4,4-dimethylcyclohexyl)-5-fluoro-1H-pyrrolo[2,3-c]pyridine-2-carboxamide], the MIC was determined as 0.5 µg/mL (≈ 1.73 µM).

On to `Cc1cc(C)c2cc(C(=O)NC3CCCCCCC3)[nH]c2n1` [MPL-041, N-cyclooctyl-4,6-dimethyl-1H-pyrrolo[2,3-b]pyridine-2-carboxamide], for which the MIC was 8.5 µg/mL (≈ 28.4 µM).

`Cc1nc2[nH]c(C(=O)NC3CC[Si]4(CCCC4)CC3)cc2c(F)c1F` [MPL-284, 4,5-difluoro-6-methyl-N-(5-silaspiro[4.5]decan-8-yl)-1H-pyrrolo[2,3-b]pyridine-2-carboxamide]: the MIC was determined as 0.026 µg/mL (≈ 0.0715 µM).

`CC(C)Oc1cncc2[nH]c(C(=O)NC3CC[Si](C)(C)CC3)cc12` [MPL-382, N-(1,1-dimethylsilinan-4-yl)-4-isopropoxy-1H-pyrrolo[2,3-c]pyridine-2-carboxamide]: the minimal inhibitory concentration (MIC) came out at 0.368 µg/mL (≈ 1.07 µM).

Consider `Cc1cc(F)c2cc(C(=O)N[C@H]3C[C@H]4C[C@@H]([C@@H]3C)C4(C)C)[nH]c2n1` [MPL-043, 4-fluoro-6-methyl-N-[(1S,2S,3S,5R)-2,6,6-trimethylnorpinan-3-yl]-1H-pyrrolo[2,3-b]pyridine-2-carboxamide], for which the minimal inhibitory concentration (MIC) stood at 0.14 µg/mL (≈ 0.425 µM). In addition, for the setting “M. tb H37Rv”, the “M. TB H37Rv: MIC-MABA: MIC” value worked out at 0.17 µg/mL.

As for `CC1(C)CCC(NC(=O)c2cc3c(C#N)cncc3[nH]2)CC1` [MPL-097, 4-cyano-N-(4,4-dimethylcyclohexyl)-1H-pyrrolo[2,3-c]pyridine-2-carboxamide], the MIC amounted to 0.16 µg/mL (≈ 0.54 µM).

Regarding `C[C@@H]1[C@@H](NC(=O)c2cc3cc(F)ncc3[nH]2)C[C@H]2C[C@@H]1C2(C)C` [MPL-128, 5-fluoro-N-[(1S,2S,3S,5R)-2,6,6-trimethylnorpinan-3-yl]-1H-pyrrolo[2,3-c]pyridine-2-carboxamide], the MIC came to 2.3 µg/mL (≈ 7.29 µM).

Source of the values: US20230002372A1, “AZAINDOLE CARBOXAMIDE COMPOUNDS FOR THE TREATMENT OF MYCOBACTERIAL INFECTIONS” (THE GLOBAL ALLIANCE FOR TB DRUG DEVELOPMENT, INC., priority 2019, published 2023).
